Laboratory results reported in patent US7348342B2, “Heterocyclic compounds process for their preparation and pharmaceutical compositions containing them and their use in medicine” (Cadila Healthcare Limited, priority 2002, dated 2008).

Test system: carrageenan foot pad edema
Experiment: carrageenan foot pad edema test
Assay type: in vivo
Conditions: Wistar rats, dose 30 mg/kg by oral gavage 1 h before carrageenan; for % Inhibition of paw edema 1 hour: 1 hour after carrageenan injection; for % Inhibition of paw edema 3 hour: 3 hour after carrageenan injection
Text: The compounds of the present invention have been tested for their biological activities by carrageenan foot pad edema test in male as well as female Wistar rats according to standard protocol described in literature (Winter et. al, Proc. Soc. Exp. Biol. Med., 111, 544, (1962); Otterness and Bliven, Laboratory Models for Testing NSAIDS, in Non-Steroidal Anti-inflammatory Drugs, (J. Lombardino, ed. 1985)). The protocol followed was as described below:
Wistar rats obtained from the Experimental Animal Facility of Zydus Research. Centre. Animals were housed in an environmentally controlled rooms with food and water available ad-libitum. All the experimental protocols were approved by the Institutional Animal Ethics Committee. Animals were divided into different groups, each group comprising of five-six animals. After an overnight fast, animals of the control group received vehicle only by oral gavage whereas animals of the other groups received different doses of the test substance(s). Each rat received same volume of the formulation i.e. 2 ml/kg on body weight basis. One hour after administration of the vehicle or test substance, all the animals received sub-planter injection of carrageenan (1% w/v in saline). Paw volume was measured at 0, 1, 3 and 5 hour after carrageenan injection. Anti-inflammatory activity, expressed as % Inhibition in paw swelling was calculated by measuring change in paw volume at different time intervals after carrageenan injection vs corresponding 0 hr values using the following formula.
[formula] Where • PVC=Average change in Paw volume of control animals • PVT=Average change in Paw volume of treated animals.

| Molecule | % Inhibition of paw edema 1 hour [%] | % Inhibition of paw edema 3 hour [%] |
| --- | --- | --- |
| 3-(4-Methoxyphenyl)-5-methyl-4-(4-methylsulfoximinylphenyl)-isoxazole [Compound 154] | 46 | 47 |
| 3-(4-Methylphenyl)-4-(3-fluoro-4-methylsulfoximinylphenyl-5H-furan-2-one [Compound 112] | 57 | 40 |
| 5-Chloro-3-(4-methylsulfoximinylphenyl)-[2,3′]bipyridinyl [Compound 97] | 13 | 36 |
| 5-methyl-4-(4-methylsulfoximinylphenyl)-3-phenyl-isoxazole [Compound 153] | 42 | 43 |
| Cc1ccc(-c2cc(C(F)(F)F)nn2-c2ccc(S(N)(=O)=O)cc2)cc1 [Celecoxib, reference compound] | 33 | 26 |
